Data from patent US11034700B2, “Substituted pyrrolidine compound and use thereof” (Takeda Pharmaceutical Company Limited, priority 2017, dated 2021).

target: T1, human OX2 receptor (Homo sapiens, UniProt O43614); test: Measurement of orexin type 2 receptor agonist activity (Fluo-4 calcium fluorescence, FDSS); type: cell-based; conditions: compound at 3 μM; CHO cells forcibly expressing human OX2 receptor; DMSO = 0%, orexin A (human) 10 nM = 100%
T1 construct: expressed in transfected cells
T1 sequence (O43614 1-444): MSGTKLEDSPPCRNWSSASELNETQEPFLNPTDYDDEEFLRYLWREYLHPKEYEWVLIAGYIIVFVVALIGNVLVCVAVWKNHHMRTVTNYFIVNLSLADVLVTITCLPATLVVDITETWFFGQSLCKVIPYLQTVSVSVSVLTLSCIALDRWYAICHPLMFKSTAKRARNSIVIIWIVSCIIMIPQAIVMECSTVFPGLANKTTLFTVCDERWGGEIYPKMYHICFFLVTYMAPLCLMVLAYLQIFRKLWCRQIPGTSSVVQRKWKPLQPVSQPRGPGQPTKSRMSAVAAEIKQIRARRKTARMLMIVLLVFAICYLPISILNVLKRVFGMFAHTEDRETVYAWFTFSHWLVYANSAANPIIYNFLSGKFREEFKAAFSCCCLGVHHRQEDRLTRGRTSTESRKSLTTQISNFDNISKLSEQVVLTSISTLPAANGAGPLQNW
Text: Experimental Example 1: Obtainment of Cell Stably Expressing Human Orexin Type 2 Receptor (hOX2R)
To obtain a cell clone stably expressing human orexin type 2 receptor, human orexin type 2 receptor cDNA was inserted into pcDNA3.1(+) plasmid vector (Invitrogen), and a plasmid DNA for expression of human orexin type 2 receptor (pcDNA3.1(+)/hOX2R) was cloned. The plasmid DNA was introduced into CHO-dhfr cell by an electroporation method, and human orexin type 2 receptor expressing clone cells were obtained by limiting dilution method by using G418 drug resistance as a selection marker.
Experimental Example 2: Measurement of Orexin Type 2 Receptor Agonist Activity
CHO cells forcibly expressing human OX2 receptor were seeded in each well of 384 well black transparent bottom plate (BD Falcon) at 7,500 cells/well, and cultured for one day in a 5% CO2 incubator at 37° C. After removal of the medium in the cell plate, assay buffer A containing a calcium indicator (HESS (Life Technologies), 20 mM HEPES (Life Technologies), 0.1% BSA (Wako Pure Chemical Industries, Ltd.), 2.5 μg/mL Fluo-4 AM (DOJINDO Chemical), 0.08% Pluronic F127 (DOJINDO Chemical), 1.25 mM probenecid (DOJINDO Chemical)) was added at 30 μL/well. The plate was stood for 30 min in a 5% CO2 incubator at 37° C., and further stood at room temperature for 30 min. A test compound prepared by diluting with assay buffer B (HESS, 20 mM HEPES, 0.1% BSA) was added at 10 μL/well, and the fluorescence value was measured by FDSSμCELL (Hamamatsu Photonics K.K.) every one sec for 1 min, and thereafter every two sec for 1 min 40 sec. The activity (%) of the test compound was calculated assuming that variation in the fluorescence value when DMSO was added instead of the test compound was 0% […], and variation in the fluorescence value when orexin A (human) (PEPTIDE INSTITUTE, INC.) was added at the final concentration of 10 nM was 100% […]. The activity of each compound at the concentration of 3 μM was shown below.

Going from COc1ccc(-c2cccc(C(=O)N(C)C)c2)cc1S(=O)(=O)Nc1cccc(O[C@H]2CCN(C(=O)c3cnn(C)c3C(F)(F)F)C2)c1 [Example 29, 4′-methoxy-N,N-dimethyl-3′-((3-(((3S)-1-((1-methyl-5-(trifluoromethyl)-1H-pyrazol-4-yl)carbonyl)pyrrolidin-3-yl)oxy)phenyl)sulfamoyl)biphenyl-3-carboxamide] to COc1ccc(-c2cccc(C(=O)N(C)C)c2)cc1S(=O)(=O)Nc1cccc(O[C@H]2CCN(C(=O)c3cccnc3C(F)(F)F)C2)c1 [Example 23, 4′-methoxy-N,N-dimethyl-3′-((3-(((3S)-1-((2-(trifluoromethyl)pyridin-3-yl)carbonyl)pyrrolidin-3-yl)oxy)phenyl)sulfamoyl)biphenyl-3-carboxamide], the “OX2R agonist activity (3 μM, %)” value falls from 98% to 88%.

First: CCCS(=O)(=O)Nc1cccc(O[C@H]2CCN(C(=O)c3c(C)cccc3C)C2)c1 [Example 36, N-(3-(((3S)-1-(2,6-dimethylbenzoyl)pyrrolidin-3-yl)oxy)phenyl)propane-1-sulfonamide]
Second: Cc1cccc(C)c1C(=O)N1CC[C@H](Oc2cccc(NS(=O)(=O)c3sccc3Cl)c2)C1 [Example 38, 3-chloro-N-(3-(((3S)-1-(2,6-dimethylbenzoyl)pyrrolidin-3-yl)oxy)phenyl)thiophene-2-sulfonamide]
The “OX2R agonist activity (3 μM, %)” value of the first is lower: 23% for the first, 44% for the second.

Compared with CO[C@@H]1CN(C(=O)c2cc(C)ccc2C)C[C@H]1Oc1cccc(NS(=O)(=O)c2ccccc2)c1 (relative stereo) [Example 65, trans-N-(3-((1-(2,5-dimethylbenzoyl)-4-methoxypyrrolidin-3-yl)oxy)phenyl)benzenesulfonamide], COc1ccccc1S(=O)(=O)Nc1cccc(O[C@@H]2CN(C(=O)c3cc(C)ccc3C)C[C@H]2O)c1 (relative stereo) [Example 114, trans-N-(3-((1-(2,5-dimethylbenzoyl)-4-hydroxypyrrolidin-3-yl)oxy)phenyl)-2-methoxybenzenesulfonamide] is lower in “OX2R agonist activity (3 μM, %)” value: 78% for the first, 60% for the second.

First: CCCS(=O)(=O)Nc1cccc(O[C@@H]2CN(C(=O)c3cc(C)ccc3C)C[C@H]2OC)c1 (relative stereo) [Example 66, trans-N-(3-((1-(2,5-dimethylbenzoyl)-4-methoxypyrrolidin-3-yl)oxy)phenyl)propane-1-sulfonamide]
Second: CO[C@@H]1CN(C(=O)c2cc(C)ccc2C)C[C@H]1Oc1cccc(NS(=O)(=O)C2CCOCC2)c1 [Example 81, N-(3-(((3R,4R)-1-(2,5-dimethylbenzoyl)-4-methoxypyrrolidin-3-yl)oxy)phenyl)tetrahydro-2H-pyran-4-sulfonamide]
The “OX2R agonist activity (3 μM, %)” value of the first is lower: 76% for the first, 92% for the second.

Compared with COc1ccc(-c2cccc(C(=O)N(C)C)c2)cc1S(=O)(=O)Nc1cc(O[C@H]2CCN(C(=O)c3c(C)cccc3C)C2)ccc1F [Example 72, 3′-((5-(((3S)-1-(2,6-dimethylbenzoyl)pyrrolidin-3-yl)oxy)-2-fluorophenyl)sulfamoyl)-4′-methoxy-N,N-dimethylbiphenyl-3-carboxamide], COc1ccc(-c2cccc(C(=O)N(C)C)c2)cc1S(=O)(=O)Nc1cccc(O[C@H]2CCN(C(=O)c3c(C)cccc3C)C2)c1 [Example 10, 3′-((3-(((3S)-1-(2,6-dimethylbenzoyl)pyrrolidin-3-yl)oxy)phenyl)sulfamoyl)-4′-methoxy-N,N-dimethylbiphenyl-3-carboxamide] is higher in “OX2R agonist activity (3 μM, %)” value: 85% for the first, 106% for the second.

First: COc1ccccc1S(=O)(=O)Nc1ccnc(O[C@@H]2CN(C(=O)c3cc(C)ccc3C)C[C@H]2OC)c1 (relative stereo) [Example 101, trans-N-(2-((1-(2,5-dimethylbenzoyl)-4-methoxypyrrolidin-3-yl)oxy)pyridin-4-yl)-2-methoxybenzenesulfonamide]
Second: COc1ccccc1S(=O)(=O)Nc1cccc(O[C@@H]2CN(C(=O)c3cc(C)ccc3C)C[C@H]2OC)c1F (relative stereo) [Example 87, trans-N-(3-((1-(2,5-dimethylbenzoyl)-4-methoxypyrrolidin-3-yl)oxy)-2-fluorophenyl)-2-methoxybenzenesulfonamide]
The “OX2R agonist activity (3 μM, %)” value of the first is lower: 95% for the first, 103% for the second.

First: COc1ccc(-c2cccc(C(=O)N(C)C)c2)cc1S(=O)(=O)Nc1cccc(O[C@@H]2CN(C(=O)c3cc(C)ccc3C)C[C@H]2OC)c1 (relative stereo) [Example 60, trans-3′-((3-((1-(2,5-dimethylbenzoyl)-4-methoxypyrrolidin-3-yl)oxy)phenyl)sulfamoyl)-4′-methoxy-N,N-dimethylbiphenyl-3-carboxamide]
Second: COc1ccc(-c2cccc(C(=O)N(C)C)c2)cc1S(=O)(=O)Nc1cccc(O[C@H]2CCN(C(=O)c3ccccc3N(C)C)C2)c1 [Example 9, 3′-((3-(((3S)-1-(2-(dimethylamino)benzoyl)pyrrolidin-3-yl)oxy)phenyl)sulfamoyl)-4′-methoxy-N,N-dimethylbiphenyl-3-carboxamide]
The “OX2R agonist activity (3 μM, %)” value of the first is higher: 105% for the first, 91% for the second.

Compared with COc1ccccc1S(=O)(=O)Nc1cccc(O[C@@H]2CN(C(=O)c3c(C)cccc3OC)C[C@H]2OC)c1 [Example 97, 2-methoxy-N-(3-(((3R,4R)-4-methoxy-1-(2-methoxy-6-methylbenzoyl)pyrrolidin-3-yl)oxy)phenyl)benzenesulfonamide], COc1ccccc1S(=O)(=O)Nc1cccc(O[C@@H]2CN(C(=O)c3c(C)cccc3C)C[C@H]2OC)c1 [Example 74, N-(3-(((3R,4R)-1-(2,6-dimethylbenzoyl)-4-methoxypyrrolidin-3-yl)oxy)phenyl)-2-methoxybenzenesulfonamide] is higher in “OX2R agonist activity (3 μM, %)” value: 93% for the first, 104% for the second.

Compared with Cc1cccc(C)c1C(=O)N1CC[C@H](Oc2cccc(NS(=O)(=O)c3cc(-c4cccc(C(=O)N(C)C)c4)ccc3F)c2)C1 [Example 35, 3′-((3-(((3S)-1-(2,6-dimethylbenzoyl)pyrrolidin-3-yl)oxy)phenyl)sulfamoyl)-4′-fluoro-N,N-dimethylbiphenyl-3-carboxamide], Cc1cccc(C)c1C(=O)N1CC[C@H](Oc2cccc(NS(=O)(=O)c3cccc(-c4cccc(C(=O)N(C)C)c4)c3)c2)C1 [Example 34, 3′-((3-(((3S)-1-(2,6-dimethylbenzoyl)pyrrolidin-3-yl)oxy)phenyl)sulfamoyl)-N,N-dimethylbiphenyl-3-carboxamide] is lower in “OX2R agonist activity (3 μM, %)” value: 99% for the first, 94% for the second.

Compared with COc1ccccc1S(=O)(=O)Nc1cccc(O[C@@H]2CN(C(=O)c3c(C)cccc3F)C[C@H]2OC)c1 [Example 96, N-(3-(((3R,4R)-1-(2-fluoro-6-methylbenzoyl)-4-methoxypyrrolidin-3-yl)oxy)phenyl)-2-methoxybenzenesulfonamide], CO[C@@H]1CN(C(=O)c2c(C)cccc2C)C[C@H]1Oc1cccc(NS(=O)(=O)c2sccc2Cl)c1F (relative stereo) [Example 111, trans-3-chloro-N-(3-((1-(2,6-dimethylbenzoyl)-4-methoxypyrrolidin-3-yl)oxy)-2-fluorophenyl)thiophene-2-sulfonamide] is lower in “OX2R agonist activity (3 μM, %)” value: 80% for the first, 52% for the second.

Compared with COc1ccccc1CC(=O)N1CC[C@H](Oc2cccc(NS(=O)(=O)c3cc(-c4cccc(C(=O)N(C)C)c4)ccc3OC)c2)C1 [Example 17, 4′-methoxy-3′-((3-(((3S)-1-((2-methoxyphenyl)acetyl)pyrrolidin-3-yl)oxy)phenyl)sulfamoyl)-N,N-dimethylbiphenyl-3-carboxamide], COc1ccc(C2CCCCN2C(C)=O)cc1S(=O)(=O)Nc1cccc(O[C@H]2CCN(C(=O)c3c(C)cccc3C)C2)c1 (stereo partly drawn) [Example 33, 5-(1-acetylpiperidin-2-yl)-N-(3-(((3S)-1-(2,6-dimethylbenzoyl)pyrrolidin-3-yl)oxy)phenyl)-2-methoxybenzenesulfonamide] is lower in “OX2R agonist activity (3 μM, %)” value: 90% for the first, 89% for the second.

For CCCS(=O)(=O)Nc1cccc(O[C@@H]2CN(C(=O)c3cc(C)ccc3C)C[C@H]2OC)c1 [Example 79, N-(3-(((3R,4R)-1-(2,5-dimethylbenzoyl)-4-methoxypyrrolidin-3-yl)oxy)phenyl)propane-1-sulfonamide], the “OX2R agonist activity (3 μM, %)” value was 76%.
